Key:
[1] = system: SLE CD4 T-cells (CXCR5); assay: CXCR5 (TFH marker) expression on stimulated CD4 T-cells, flow cytometry; type: cell-based, human
Description: Antibodies to CD4, CD8, CD3 conjugated with various fluorochromes (FITC, phycoerythrin (PE), peridinin-chlorophyll-protein (PerCp), allophycocyanin (APC), PE-Cy7) were from BD Biosciences or eBiosciences (San Diego, CA). For further LL37-specific T-cell characterization and B-cell characterization we used: APC-Cy7-CXCR5 (FAB190), APC or PE-CD38, CD19, CD20, CD27, antibodies, purchased from BD Biosciences, eBiosciences, Novus Biologicals (Littleton, CO), R&D (Minneapolis, MN). Appropriate isotype-matched controls were purchased from the same companies. PerCp-7-AAD was from BD Pharmingen, DAPI from Invitrogen (Thermo Fisher, Carlsbad, CA, USA).
PBMCs were purified from EDTA-treated blood, on Ficoll-Hypaque (Pharmacia Fine Chemicals, Uppsala, Sweden) and were incubated (10^5 cells/well) in 96-well-flat-bottom-microplates (BD) in T-cell-medium (RPMI 1640, 10% heat-inactivated human serum, HS, Gibco), 2 mM L-glutamine, 10 U/mL penicillin and 100 μg/mL streptomycin), with/without peptides. We performed assays on fresh cells, within 1-to-3 h from collection or on PBMCs frozen in 90% FCS−10% DMSO, whose viability we assessed by Trypan blue exclusion, with an inverted microscope. Recovery of live cells was between 65 and 85% of the frozen number. At day 3 and 5, BrdU was added (1 μg/mL). BrdU-incorporation was detected by APC-labeled anti-BrdU antibody (BD Pharmingen), after surface staining for CD4, CD3, CD8 and analyzed by flow cytometry (Gallios, BeckmanCoulter, Brea, CA, USA). Internal control for T-cell viability and proliferation was PHA treatment (2 μg/mL). SI for proliferation was calculated by dividing percent of BrdU-staining in the presence of each peptide antigen (LL37, carb-LL37, cit-LL37, LL37 reverse, REV; cit-LL37 reverse, cit-REV; carb-LL37 reverse, carb-REV) by the percent obtained in the untreated cells. SI for proliferation was considered positive when the values of percent of BrdU positive cells was three times higher than the values obtained with the control peptides (SI > 3). Assays were repeated twice with each patient. In rare cases in which background proliferation (culture with REV, cit-REV, carb-REV), exceeded antigen-specific proliferation (that is response to LL37, carb-LL37, cit-LL37), the assay was repeated three times. Concomitant phenotype analysis of LL37-responder T-cells included staining for CD3, CD4, CD8, CXCR5 (CXCR5 was assessed on BrdU/CD3/CD4-positive cells).

[2] = system: native LL37-P1-specific T-cells (HLA-DRB5*0101 tetramer); assay: Peptide-MHC-tetramer staining of T-cells after PBMC stimulation; type: cell-based, human; details: 6 days stimulation, CD38hi CD4 T-cells; for Control (Ctr-B5) tetramer positive T-cells: Ctr-B5 tetr, lower panels Figure S6; for LL37-specific T-cells (LL37-B5 tetramer positive): LL37-B5 tetr, upper panels Figure S6
Description: Peptide-MHC-tetramers were from ImmunAware (Denmark). Staining was performed for 40 min with 1microL of tetramer suspension at 37 °C, followed by staining for CD4 (4 °C, 20 min), without washing. After incubation with anti-CD4 antibody, cells were washed, resuspended in PBS and kept at 4 °C. Before flow cytometry-acquisition, cells were labeled with PercP-conjugated 7-AAD to exclude dead cells. The peptide-MHC-tetramers used in this study are: the HLA-DR15-P1: tetramer of HLA-DRB1*1501 LLGDFFRKSKEKIGK (corresponding to the first aa at the NH2-term of the mature native LL37), (PE-conjugated) and the control peptide-MHC-tetramer called DR15-ctr: tetramer of HLA-DRB1*1501 […]1-169-185 (PE-conjugated). The other couple of peptide-MHC-tetramers used were HLA-DRB5*0101 loaded with the same LL37 epitope as above and the control tetramer HLA-DRB5*0101 loaded with the control epitope PVSKMRMATPLLMQA (CLIP-derived).

[3] = Net charge of the peptides; type: physicochemical
[4] = system: SLE-affected kidney biopsies; assay: Confocal microscopy of SLE renal biopsies; design: species or system human; details: antibody RRB640, lupus nephritis class IV
Description: Paraffin-included SLE renal biopsies were obtained from Policlinico Umberto I, Rome, IT. Biopsies were de-paraffinized in xylene (5 min, two times), followed by passages in: absolute ethanol (3 min), 95% ethanol in water (3 min), 80% ethanol in water (3 min), 70% ethanol in water (3 min) and antigen retrieval (5 min at 95 °C in 10 mM sodium citrate, pH 6.0). […] Slides were washed three times for 3 min under agitation with washing buffer and incubated with donkey anti-mouse or anti-rabbit secondary antibody, conjugated with AlexaFluor 647, Alexa Fluor 568 or 594 or AlexaFluor 488 (Abcam, Cambridge, UK) depending on the combinations of markers analyzed (in humidified chamber). Slides were washed again in washing buffer and mounted in Prolong Gold anti-fade media containing a DNA dye (DAPI) (Molecular Probes), before analysis with a confocal microscope, objectives 20× or 40× and 60× in oil immersion. Images were taken by a FV1000 confocal microscope (Olympus, Tokyo, Japan), using a Olympus planapo objective 40× or 60× oil A.N. 1,42. Excitation light was obtained by a Laser Dapi 408 nm for DAPI, an Argon Ion Laser (488 nm) for FITC (Alexa 488), a Diode Laser HeNe (561 nm) for Alexa 568 and a Red Diode Laser (638 nm) for Alexa 647. DAPI emission was recorded from 415 to 485 nm, FITC emission was recorded from 495 to 550 nm, Alexa 568 from 583 to 628 nm and Alexa 647, from 634 to 750 nm.

[5] = system: native LL37-P1-specific T-cells (HLA-DRB1*1501 tetramer); details: SLE PBMC culture, tetramers of HLA-DR1, HLA-DR15 or HLA-DRB5; cited from earlier work
Description: We have performed here similar experiments in SLE patients expressing the HLA-DR15 (HLA-DRB1*1501) and/or the DR16 alleles. Since both HLA-DR15- and HLA-DR16-positive individuals co-express DRB5 [[2 ...

[6] = system: SLE CD4 T-cells; details: cited from earlier work
Description: The activation of autoreactive T- and B-cells characterizes Systemic Lupus Erythematosus (SLE), a rare but potentially severe disease, with poor therapeutic options. In this context, a deeper knowledge of the molecular pathways leading to autoimmunity in SLE may shed light over disease aspects still neglected and uncover novel disease biomarkers and therapy targets. The human cathelicidin antimicrobial peptide, (AMP, Uniprot P49913)—also called CAP-18 or FALL-39—is encoded by the human gene CAMP. The mature form, peptide LL37, which corresponds to the COOH-terminal part of the molecule ( ...

Substance | Correlation of CXCR5 fold-increase with anti-native LL37 antibody response ([1]; Spearman, Figure 4e) | Correlation of T-cell proliferation with CXCR5 up-regulation ([1]; Spearman, Figure 3d) | CXCR5 up-regulation on antigen-specific T-cells ([1]; fold-increase with respect to T-cells proliferating to control carb-REV) | CXCR5-positive cells among total CD3+CD4+ cells ([1]; representative plot, Figure S5b left panels) | CXCR5-positive cells among CD3+CD4+BrdU+ cells ([1]; representative plot, Figure S5b middle panels) | CXCR5-positive cells among CD3+CD4+BrdU- cells ([1]; representative plot, Figure S5b right panels) | Control (Ctr-B5) tetramer positive T-cells [2] | LL37-specific T-cells (LL37-B5 tetramer positive) [2] | Net charge [3] | Presence in SLE-affected kidney biopsies and co-localization with IgG [4] | Expansion of T-cells specific for both cit-LL37 and native LL37 epitopes [5] | Antigen efficiency in SLE compared to native LL37 [6]
L*LGDFFRK*SK*EK*IGKEFK*RIVQRIK*DFLRNLVPRTES [carb-LL37] | significantly correlated | positive and significance correlation | up-regulation of the TFH cell marker CXCR5 | 8.95% | 39.4% | 3.08% | 0.39% | 6.57% | +1 | present in SLE-affected kidney biopsies and partially co-localizes with immunoglobulin (Ig)-G | – | –
LLGDFFR(cit)KSKEKIGKEFKR(cit)IVQR(cit)IKDFLR(cit)NLVPR(cit)TES [cit-LL37, LL37 citrullinated at all five arginine sites] | – | – | – | – | – | – | 0.54% | 2.48% | +1 | – | able to expand T-cells specific for both the cit-LL37 and the native LL37 epitopes | more efficient antigen in SLE than native LL37
